Test results taken from the supplement of paper PMC11208160.

Assay: recombinant UMI read abundance after kanamycin selection (control-corrected) (log10(CPM+1)); higher = more efficient recombination; extreme values may be limits of the assay; sequences stand for … in AGTGCAGAGAAAATCGGCCAGTTTTCTCTGCCTGCAGTCCGCATGCCGTGGGACCCCTTGGGTTCTAACCTGTTGCCTAGATTTATGCAGCGGACTGCCTTTCTCCCAAAGTGATAAACCGG…AGGTTGGTTTCACT; site = the 11-nt donor
Procedure, shortened: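 In Escherichia coli, a pool of donor and donor-binding-loop pairs, each with a 12-nt UMI, was tested for the IS621 bridge recombinase. Plating was on IPTG (0.07 mM) plus kanamycin, or without selection, in two replicates. Recombinant UMIs were amplified by PCR across the donor–target junction and sequenced, and counts were reported as log10(CPM+1) after averaging and control-derived scaling.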
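Also: IS621 bridge recombinase in Escherichia coli cells against a fixed T5 target plasmid.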

Row | Sequence | recombinant UMI read abundance (log10)
1 | CGGATTCCATGGACCGGTTTTCCCGGTAATCCGTATTTGTT (site CGGATTCCTAA) | 0.599
2 | CGGCAGGCATGGACCGGTTTTCCCGGTAATCCGTATTTGAT (site CGGCAGGCTAT) | 2.21
3 | CGGCATCCATGGACCGGTTTTCCCGGTAATCCGTATTTGGT (site CGGAATCCTAA) | 0
4 | CGGCATCCATGGACCGGTTTTCCCGGTAATCCGTATTTGGT (site CGGCATCCTAC) | 0.00636
5 | CGGCATCCATGGACCGGTTTTCCCGGTAATCCGTATTTGTT (site CGGAATCCTAA) | 0
6 | CGGCATCCATGGACCGGTTTTCCCGGTAATCCGTATTTGTT (site CGGCATCCTAA) | 0.467
7 | CGGCATCCATGGACCGGTTTTCCCGGTAATCCGTATTTGTT (site CGGGATCCTAA) | 0.0034
8 | CGGCATCCATGGACCGGTTTTCCCGGTAATCCGTATTTGTT (site CGGTATCCTAA) | 0.0136
9 | CGGCCAACATGGACCGGTTTTCCCGGTAATCCGTATTTGTC (site CGGCCAACTGA) | 1.56
10 | CGGCGCTCATGGACCGGTTTTCCCGGTAATCCGTATTTGAT (site CGGCGCTCTAT) | 2.65
11 | CGGCGTACATGGACCGGTTTTCCCGGTAATCCGTATTTGCT (site CGACGTACTAG) | 1.63
12 | CGGCGTACATGGACCGGTTTTCCCGGTAATCCGTATTTGCT (site CGCCGTACTAG) | 0.201
13 | CGGCGTACATGGACCGGTTTTCCCGGTAATCCGTATTTGCT (site CGGCGTACTAG) | 2.38
14 | CGGCGTACATGGACCGGTTTTCCCGGTAATCCGTATTTGCT (site CGTCGTACTAG) | 0
15 | CGGCGTACATGGACCGGTTTTCCCGGTAATCCGTATTTGTC (site CGGCGTACTGA) | 2.31
16 | CGGCGTGCATGGACCGGTTTTCCCGGTAATCCGTATTTGAC (site CGGCGTGCTGT) | 2.82
17 | CGGCTTCCATGGACCGGTTTTCCCGGTAATCCGTATTTGGA (site CGGCTTCCTTC) | 0.00516
18 | CGGCTTGCATGGACCGGTTTTCCCGGTAATCCGTATTTGCC (site CGGCTTGCTGG) | 0.904
19 | CGGGAAACATGGACCGGTTTTCCCGGTAATCCGTATTTGCA (site CAGGAAACTTG) | 2
20 | CGGGAAACATGGACCGGTTTTCCCGGTAATCCGTATTTGCA (site CCGGAAACTTG) | 1.45
21 | CGGGAAACATGGACCGGTTTTCCCGGTAATCCGTATTTGCA (site CGGGAAACTTG) | 0.914
22 | CGGGAAACATGGACCGGTTTTCCCGGTAATCCGTATTTGCA (site CTGGAAACTTG) | 1.04
23 | CGGGAACCATGGACCGGTTTTCCCGGTAATCCGTATTTGCT (site CGGGAACCTAA) | 0
24 | CGGGAACCATGGACCGGTTTTCCCGGTAATCCGTATTTGCT (site CGGGAACCTAC) | 0
25 | CGGGAACCATGGACCGGTTTTCCCGGTAATCCGTATTTGCT (site CGGGAACCTAG) | 0

Row | Sequence | recombinant UMI read abundance (log10)
26 | CGGGAACCATGGACCGGTTTTCCCGGTAATCCGTATTTGCT (site CGGGAACCTAT) | 0
27 | CGGGAGCCATGGACCGGTTTTCCCGGTAATCCGTATTTGAT (site CGGGAACCTAT) | 0
28 | CGGGAGCCATGGACCGGTTTTCCCGGTAATCCGTATTTGAT (site CGGGACCCTAT) | 0.00515
29 | CGGGAGCCATGGACCGGTTTTCCCGGTAATCCGTATTTGAT (site CGGGAGCCTAT) | 0.266
30 | CGGGAGCCATGGACCGGTTTTCCCGGTAATCCGTATTTGAT (site CGGGATCCTAT) | 0.0423
31 | CGGGAGTCATGGACCGGTTTTCCCGGTAATCCGTATTTGCT (site CGGGAGTCTAG) | 2.6
32 | CGGGAGTCATGGACCGGTTTTCCCGGTAATCCGTATTTGCT (site CGGGAGTCTCG) | 2.06
33 | CGGGAGTCATGGACCGGTTTTCCCGGTAATCCGTATTTGCT (site CGGGAGTCTGG) | 2.26
34 | CGGGAGTCATGGACCGGTTTTCCCGGTAATCCGTATTTGCT (site CGGGAGTCTTG) | 1.47
35 | CGGGAGTCATGGACCGGTTTTCCCGGTAATCCGTATTTGTC (site CGGGAGTCTGA) | 3.19
36 | CGGGAGTCATGGACCGGTTTTCCCGGTAATCCGTATTTGTC (site CGGGAGTCTGC) | 1.37
37 | CGGGAGTCATGGACCGGTTTTCCCGGTAATCCGTATTTGTC (site CGGGAGTCTGG) | 2.03
38 | CGGGAGTCATGGACCGGTTTTCCCGGTAATCCGTATTTGTC (site CGGGAGTCTGT) | 1.9
39 | CGGGCAGCATGGACCGGTTTTCCCGGTAATCCGTATTTGTC (site CGGGCAGCTGA) | 1.93
40 | CGGGCCTCATGGACCGGTTTTCCCGGTAATCCGTATTTGTT (site CGGGCCTCTAA) | 2.54
41 | CGGGGGTCATGGACCGGTTTTCCCGGTAATCCGTATTTGCC (site CGGGAGTCTGG) | 0.865
42 | CGGGGGTCATGGACCGGTTTTCCCGGTAATCCGTATTTGCC (site CGGGCGTCTGG) | 1.7
43 | CGGGGGTCATGGACCGGTTTTCCCGGTAATCCGTATTTGCC (site CGGGGGTCTGG) | 1.86
44 | CGGGGGTCATGGACCGGTTTTCCCGGTAATCCGTATTTGCC (site CGGGTGTCTGG) | 0.6
45 | CGGGTACCATGGACCGGTTTTCCCGGTAATCCGTATTTGAT (site CGGGAACCTAT) | 0
46 | CGGGTACCATGGACCGGTTTTCCCGGTAATCCGTATTTGAT (site CGGGCACCTAT) | 0
47 | CGGGTACCATGGACCGGTTTTCCCGGTAATCCGTATTTGAT (site CGGGGACCTAT) | 0
48 | CGGGTACCATGGACCGGTTTTCCCGGTAATCCGTATTTGAT (site CGGGTACCTAT) | 0.00441
49 | CGGGTGTCATGGACCGGTTTTCCCGGTAATCCGTATTTGTT (site CGGGTGTCTAA) | 3.07
50 | CGGGTTGCATGGACCGGTTTTCCCGGTAATCCGTATTTGAG (site CGGGTTGCTCT) | 1.79

Row | Sequence | recombinant UMI read abundance (log10)
51 | CGGTACTCATGGACCGGTTTTCCCGGTAATCCGTATTTGGC (site CGGTACTCTGC) | 3.19
52 | CGGTAGCCATGGACCGGTTTTCCCGGTAATCCGTATTTGTT (site CGGAATCCTAA) | 0.00596
53 | CGGTAGCCATGGACCGGTTTTCCCGGTAATCCGTATTTGTT (site CGGTAGCCTAA) | 0.237
54 | CGGTCATCATGGACCGGTTTTCCCGGTAATCCGTATTTGCT (site CGATCATCTAG) | 1.07
55 | CGGTCATCATGGACCGGTTTTCCCGGTAATCCGTATTTGCT (site CGCTCATCTAG) | 0
56 | CGGTCATCATGGACCGGTTTTCCCGGTAATCCGTATTTGCT (site CGGACATCTAG) | 0
57 | CGGTCATCATGGACCGGTTTTCCCGGTAATCCGTATTTGCT (site CGGCCATCTAG) | 2.29
58 | CGGTCATCATGGACCGGTTTTCCCGGTAATCCGTATTTGCT (site CGGGCATCTAG) | 0
59 | CGGTCATCATGGACCGGTTTTCCCGGTAATCCGTATTTGCT (site CGGTCATCTAG) | 1.7
60 | CGGTCATCATGGACCGGTTTTCCCGGTAATCCGTATTTGCT (site CGTTCATCTAG) | 0.224
61 | CGGTCCGCATGGACCGGTTTTCCCGGTAATCCGTATTTGCG (site CGGTCCGCTCG) | 0.155
62 | CGGTCTTCATGGACCGGTTTTCCCGGTAATCCGTATTTGCT (site CGATCATCTAG) | 0
63 | CGGTCTTCATGGACCGGTTTTCCCGGTAATCCGTATTTGCT (site CGGTCTTCTAG) | 1.49
64 | CGGTGAGCATGGACCGGTTTTCCCGGTAATCCGTATTTGGA (site CGGTGAGCTTC) | 1.56
65 | CGGTGGACATGGACCGGTTTTCCCGGTAATCCGTATTTGGG (site CGGTGGACTCC) | 0.024
66 | CGTAACCCATGGACCGGTTTTCCCGGTAATCCGTATTTGGC (site CGTAACCCTGC) | 0.629
67 | CGTAACTCATGGACCGGTTTTCCCGGTAATCCGTATTTGTA (site CGTAACTCTTA) | 2.2
68 | CGTAAGACATGGACCGGTTTTCCCGGTAATCCGTATTTGCA (site AGGAAGACTTG) | 0
69 | CGTAAGACATGGACCGGTTTTCCCGGTAATCCGTATTTGCA (site CGTAAGACTTG) | 2.68
70 | CGTAATACATGGACCGGTTTTCCCGGTAATCCGTATTTGGC (site CATAATACTGC) | 0
71 | CGTAATACATGGACCGGTTTTCCCGGTAATCCGTATTTGGC (site CCTAATACTGC) | 0
72 | CGTAATACATGGACCGGTTTTCCCGGTAATCCGTATTTGGC (site CGTAATACTGC) | 1.22
73 | CGTAATACATGGACCGGTTTTCCCGGTAATCCGTATTTGGC (site CTTAATACTGC) | 0
74 | CGTAATACATGGACCGGTTTTCCCGGTAATCCGTATTTGTT (site CGGAATCCTAA) | 0
75 | CGTAATACATGGACCGGTTTTCCCGGTAATCCGTATTTGTT (site CGTAATACTAA) | 0.809
